# Data from ChEMBL document CHEMBL3885881, “DrugMatrix”.
# Species on record: Rattus norvegicus
# Assay: DrugMatrix - Regimen: Daily Repeat
# Format: toxicity, organism-based, Sprague-Dawley
# Parameters: regimen Daily Repeat, gender Male, age 6-8 weeks
# Details: in vivo, po, route oral GAVAGE, […]; for ABSOLUTE BASOPHIL / ABSOLUTE EOSINOPHIL / ABSOLUTE LYMPHOCYTE / ABSOLUTE MONOCYTE / ABSOLUTE SEGMENTED NEUTROPHIL / BASOPHIL / EOSINOPHIL / ERYTHROCYTE COUNT / HEMATOCRIT / HEMOGLOBIN / LEUKOCYTE COUNT / LYMPHOCYTE / MEAN CORPUSCULAR HEMOGLOBIN / MEAN CORPUSCULAR HEMOGLOBIN CONCENTRATION / MEAN CORPUSCULAR VOLUME / MONOCYTE / NEUTROPHIL / NUCLEATED RED BLOOD CELLS / PLATELET COUNT: tissue Blood; for ALANINE AMINOTRANSFERASE / ALBUMIN / ALKALINE PHOSPHATASE / ASPARTATE AMINOTRANSFERASE / BLOOD UREA NITROGEN / CARBON DIOXIDE / CHLORIDE / CHOLESTEROL / CREATINE PHOSPHOKINASE / CREATININE / GLUCOSE / LACTATE DEHYDROGENASE / LIPASE / PHOSPHORUS / POTASSIUM / SODIUM / TOTAL BILIRUBIN / TOTAL PROTEIN / URIC ACID: tissue Plasma
# [1] = 0 mg/kg, 72 h, dose level Control, time 3 day
# [2] = 0 mg/kg, 120 h, dose level Control, time 5 day
# [3] = 30 mg/kg, 72 h, dose level Low, time 3 day
smiles,measurement,setting,value
Cc1oncc1C(=O)Nc1ccc(C(F)(F)F)cc1 [LEFLUNOMIDE],ABSOLUTE BASOPHIL,[1],0 CELLS/uL
same,ABSOLUTE EOSINOPHIL,[1],52.33 CELLS/uL
same,ABSOLUTE LYMPHOCYTE,[1],9105.33 CELLS/uL
same,ABSOLUTE MONOCYTE,[1],155.67 CELLS/uL
same,ABSOLUTE SEGMENTED NEUTROPHIL,[1],1020 CELLS/uL
same,BASOPHIL,[1],0%
same,EOSINOPHIL,[1],0.33%
same,ERYTHROCYTE COUNT,[1],5.03 x10E6/uL
same,HEMATOCRIT,[1],31.63%
same,HEMOGLOBIN,[1],12.37 G/DL
same,LEUKOCYTE COUNT,[1],10.33 x10E3/uL
same,LYMPHOCYTE,[1],87%
same,MEAN CORPUSCULAR HEMOGLOBIN,[1],24.57 pg
same,MEAN CORPUSCULAR HEMOGLOBIN CONCENTRATION,[1],39.07 G/DL
same,MEAN CORPUSCULAR VOLUME,[1],62.93 fL
same,MONOCYTE,[1],1.33%
same,NEUTROPHIL,[1],11.33%
same,NUCLEATED RED BLOOD CELLS,[1],0 /100WBC
same,PLATELET COUNT,[1],896 x10E3/uL
same,ALANINE AMINOTRANSFERASE,[1],75.33 u/L
same,ALBUMIN,[1],3.77 G/DL
same,ALKALINE PHOSPHATASE,[1],378.67 u/L
same,ASPARTATE AMINOTRANSFERASE,[1],101.33 u/L
same,BLOOD UREA NITROGEN,[1],11.33 mg/dL
same,CARBON DIOXIDE,[1],25 mmol/L
same,CHLORIDE,[1],99 MEQ/L
same,CHOLESTEROL,[1],66 mg/dL
same,CREATINE PHOSPHOKINASE,[1],277 u/L
same,CREATININE,[1],0.33 mg/dL
same,GLUCOSE,[1],198.33 mg/dL
same,LACTATE DEHYDROGENASE,[1],140.33 u/L
same,LIPASE,[1],11.33 u/L
same,PHOSPHORUS,[1],11.83 mg/dL
same,POTASSIUM,[1],5.37 MEQ/L
same,SODIUM,[1],141.03 MEQ/L
same,TOTAL BILIRUBIN,[1],0.2 mg/dL
same,TOTAL PROTEIN,[1],5.47 G/DL
same,URIC ACID,[1],0.93 mg/dL
same,ABSOLUTE BASOPHIL,[2],0 CELLS/uL
same,ABSOLUTE EOSINOPHIL,[2],0 CELLS/uL
same,ABSOLUTE LYMPHOCYTE,[2],8734 CELLS/uL
same,ABSOLUTE MONOCYTE,[2],98.67 CELLS/uL
same,ABSOLUTE SEGMENTED NEUTROPHIL,[2],1034 CELLS/uL
same,BASOPHIL,[2],0%
same,EOSINOPHIL,[2],0%
same,ERYTHROCYTE COUNT,[2],5.19 x10E6/uL
same,HEMATOCRIT,[2],33.2%
same,HEMOGLOBIN,[2],12.93 G/DL
same,LEUKOCYTE COUNT,[2],9.87 x10E3/uL
same,LYMPHOCYTE,[2],87%
same,MEAN CORPUSCULAR HEMOGLOBIN,[2],25 pg
same,MEAN CORPUSCULAR HEMOGLOBIN CONCENTRATION,[2],39.03 G/DL
same,MEAN CORPUSCULAR VOLUME,[2],63.93 fL
same,MONOCYTE,[2],1%
same,NEUTROPHIL,[2],12%
same,NUCLEATED RED BLOOD CELLS,[2],0 /100WBC
same,PLATELET COUNT,[2],1190 x10E3/uL
same,ALANINE AMINOTRANSFERASE,[2],75.67 u/L
same,ALBUMIN,[2],4 G/DL
same,ALKALINE PHOSPHATASE,[2],384.33 u/L
same,ASPARTATE AMINOTRANSFERASE,[2],89.67 u/L
same,BLOOD UREA NITROGEN,[2],13 mg/dL
same,CARBON DIOXIDE,[2],32.67 mmol/L
same,CHLORIDE,[2],103 MEQ/L
same,CHOLESTEROL,[2],79.67 mg/dL
same,CREATINE PHOSPHOKINASE,[2],199.33 u/L
same,CREATININE,[2],0.29 mg/dL
same,GLUCOSE,[2],161.33 mg/dL
same,LACTATE DEHYDROGENASE,[2],92.33 u/L
same,LIPASE,[2],11.67 u/L
same,PHOSPHORUS,[2],10.8 mg/dL
same,POTASSIUM,[2],5.38 MEQ/L
same,SODIUM,[2],145.3 MEQ/L
same,TOTAL BILIRUBIN,[2],0.17 mg/dL
same,TOTAL PROTEIN,[2],5.7 G/DL
same,URIC ACID,[2],0.63 mg/dL
same,ABSOLUTE BASOPHIL,[3],0 CELLS/uL
same,ABSOLUTE EOSINOPHIL,[3],0 CELLS/uL
same,ABSOLUTE LYMPHOCYTE,[3],5968 CELLS/uL
same,ABSOLUTE MONOCYTE,[3],69 CELLS/uL
same,ABSOLUTE SEGMENTED NEUTROPHIL,[3],863 CELLS/uL
same,BASOPHIL,[3],0%
same,EOSINOPHIL,[3],0%
same,ERYTHROCYTE COUNT,[3],5.11 x10E6/uL
same,HEMATOCRIT,[3],32.33%
same,HEMOGLOBIN,[3],12.8 G/DL
same,LEUKOCYTE COUNT,[3],6.9 x10E3/uL
same,LYMPHOCYTE,[3],87%
same,MEAN CORPUSCULAR HEMOGLOBIN,[3],25.03 pg
same,MEAN CORPUSCULAR HEMOGLOBIN CONCENTRATION,[3],39.63 G/DL
same,MEAN CORPUSCULAR VOLUME,[3],63.2 fL
same,MONOCYTE,[3],1%
same,NEUTROPHIL,[3],12%
same,NUCLEATED RED BLOOD CELLS,[3],0 /100WBC
same,PLATELET COUNT,[3],794.67 x10E3/uL
same,ALANINE AMINOTRANSFERASE,[3],46.33 u/L
same,ALBUMIN,[3],3.67 G/DL
same,ALKALINE PHOSPHATASE,[3],251.33 u/L
same,ASPARTATE AMINOTRANSFERASE,[3],75.67 u/L
same,BLOOD UREA NITROGEN,[3],8 mg/dL
same,CARBON DIOXIDE,[3],29.67 mmol/L
same,CHLORIDE,[3],101.33 MEQ/L
same,CHOLESTEROL,[3],98.67 mg/dL
same,CREATINE PHOSPHOKINASE,[3],199.67 u/L
same,CREATININE,[3],0.1 mg/dL
same,GLUCOSE,[3],181.33 mg/dL
same,LACTATE DEHYDROGENASE,[3],70 u/L
same,LIPASE,[3],10.67 u/L
same,PHOSPHORUS,[3],9.87 mg/dL
same,POTASSIUM,[3],4.69 MEQ/L
same,SODIUM,[3],144.17 MEQ/L
same,TOTAL BILIRUBIN,[3],0.13 mg/dL
same,TOTAL PROTEIN,[3],5.17 G/DL
same,URIC ACID,[3],0.53 mg/dL
